Measured values taken from publication PMC3711248 (Journal of medicinal chemistry, 2013).

Experiments:
LYP = biological target: T1, LYP (Homo sapiens, UniProt Q9Y2R2); format: biochemical
T1 sequence (Q9Y2R2 1-303): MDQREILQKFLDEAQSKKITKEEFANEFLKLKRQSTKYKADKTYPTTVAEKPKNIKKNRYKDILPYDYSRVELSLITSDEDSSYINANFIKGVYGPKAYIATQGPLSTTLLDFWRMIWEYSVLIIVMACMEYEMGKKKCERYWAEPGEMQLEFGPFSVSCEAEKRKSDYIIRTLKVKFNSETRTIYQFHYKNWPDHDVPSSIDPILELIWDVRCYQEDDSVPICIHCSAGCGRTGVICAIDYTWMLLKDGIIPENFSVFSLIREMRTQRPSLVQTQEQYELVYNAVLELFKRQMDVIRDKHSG

[1] = tested on: double-positive (DP) thymocytes; test: CD69 surface expression on mouse thymocytes; conditions: […] µM, […] at 37°C, thymocytes from Nur77GFP mice; DMSO MFI=381
mice = test: Passive systemic anaphylaxis; format: in vivo, mouse; conditions: PEP+/+ mice, 8b (20 µM) IP 1 h before DNP-HSA i.v., vs untreated groups
JTAg cells [2] = test: Phospho-flow cytometry of ZAP-70; conditions: […] µM, 30 min pre-incubation, C305 stimulation 2 min, vs DMSO
BMMC [3] = test: NF-AT luciferase reporter gene analysis in BMMC; format: cell-based, mouse
BMMC [4] = test: Mast cell degranulation
[5] = tested on: double-positive (DP) thymocytes; test: Nur77 expression; conditions: […] µM, […] at 37°C, thymocytes from Nur77GFP mice; DMSO MFI=604
JTAg cells [6] = test: CD69 surface expression on JTAg cells; conditions: […] µM, 4.5 hours at 37°C, resting JTAg cells; DMSO MFI=451

SMILES	improvement of LYP inhibitory potency compared to Core 1 (LYP)	CD69 expression, MFI [1]	susceptibility to passive systemic anaphylaxis (change in body temperature) (mice)	basal and TCR-stimulated phosphorylation of ZAP-70 on Tyr319 (JTAg cells [2])	basal and antigen-mediated NF-AT luciferase activity (BMMC [3]; PEP+/+ BMMC, C28 5 µM, 8b 5 and 20 µM for 1 h, DNP-HSA 8 h)	residual NF-AT activity (BMMC [3]; PEP−/− BMMC)	antigen-stimulated degranulation (release of β-hexosaminidase) (BMMC [4]; PEP+/+ BMMC, C28 5 µM, 8b 5 and 20 µM for 1 h, DNP-HSA 200 ng/ml)	residual degranulation (BMMC [4]; PEP−/− BMMC)	Nur77 expression by GFP cell fluorescence, MFI [5]	CD69 expression, median fluorescence intensity (MFI) (JTAg cells [6])
O=C(O)c1cc2c(C#Cc3cccc(Cl)c3)c(-c3ccccc3)oc2cc1O [Compound 4c]	50 fold									
O=C(O)c1cc2c(C#Cc3ccc(Oc4ccccc4)cc3)c(-c3ccccc3)oc2cc1O [Compound 4i]	50 fold									
O=C(COc1ccc(-c2oc3cc(O)c(C(=O)O)cc3c2C#Cc2cccc(Cl)c2)cc1)NC1CC1 [Compound 8b, 3-((3-Chlorophenyl)ethynyl)-2-(4-(2-(cyclopropylamino)-2-oxoethoxy)phenyl)-6-hydroxybenzofuran-5-carboxylic Acid]		758	less susceptible to PSA	increased	dose dependent down-regulation	No significant effect	down-regulated	Neither compunds affected residual degranulation	1120	616
